Starred links: 1 amine or outer side, 2 acyl side, 3 side chain; linkers in the order of their positions; H or OH if unused. Non-standard residues stand in square brackets, D forms with d. Residues, ends and D or L forms follow the SMILES beside them. No end group written: not given here. ξ: configuration not given here. *: point of attachment. X1 = CC(=O)N[C@@H]1[C@@H](O)[C@@H](O)[C@@H](C=NO[C@@H]2O[C@H](CO)[C@H](O)[C@H](O)[C@H]2O)O[C@@H]1*; X2 = CC(=O)N[C@H]1[C@@H](ON=C(C)C[C@H](N[*:1])C(=O)[*:2])O[C@H](CO)[C@H](O)[C@@H]1O; αGalNAc = CC(=O)N[C@@H]1[C@@H](O)[C@@H](O)[C@@H](CO)O[C@@H]1*; Thr(3ξ) = CC(O)[C@H](N)C(=O)O
How the values were obtained:
E. coli D22 [1] = experiment: growth inhibition assay (Example II); assay type: cell-based; conditions: for IC50: E. coli D22 in LB media with streptomycin, 24 h at rt, absorbance at 415 nm, read-out: IC50 in blocking bacterial growth
Procedure: 10. The growth inhibition assay was performed essentially as described by Bulet et al.^3 Sterile 96-well plates were used, with a final volume of 100 μL per well. This volume consisted of 90 μL of mid-logarithmnic phase culture of E. coli D22 in LB media containing streptomycin (50 μg/mL), added to 10 μL of serially diluted peptide (native drosocin (1), unglycosylated drosocin or neoglycopeptide 2) in water. Final peptide concentrations ranged from 10^−8 to 10^−5 M. Plates were incubated for 24 h at rt. Bacterial growth was determined by measuring the absorbance at 415 nm on a BioRad 550 microplate reader. Measurements were taken at t=0 h and t=24 h, and the change in absorbance (optical density) was recorded.

bacterial growth = conditions: cited from earlier work; for enhancement of bacteriostatic potency by the O-linked glycan (GalNAc residue) at Thr11: glycosylated vs unglycosylated peptide
E. coli D22 [2] = experiment: Bacterial growth inhibition assays (Example IV); assay type: cell-based
Procedure: General methods: Galactose oxidase (EC 1.1.3.9) (450 units/mg) was purchased from Sigma. All chemical reagents were obtained from commercial suppliers and used without further purification. For flash chromatography, 230-400 mesh silica gel 60 (E. Merck No. 9385) was employed. Analytical thin layer chromatography (tlc) was conducted on Analtech Uniplate silica gel plates with detection by ceric ammonium molybdate and/or by UV light. Reversed-phase high pressure liquid chromatography (RP-HPLC) was performed on a Rainin Dynamax SD-200 system using Microsorb and Dynamax C18 reversed-phase columns (analytical: 4.6 mm ID×25 cm, 1 mL/min; semi-preparative: 10 mm ID×25 cm, 3 mL/min), and ultraviolet detection (230 nm) was performed with a Rainin Dynamax UV-1 detector. The E. coli strain D22 used in bacterial growth inhibition assays was obtained from the E. Coli Genetic Stock Center at Yale University.
Bacterial growth inhibition assays. […] Peptide concentrations were determined by measuring dry weight, and assuming 80% of that weight was peptide and the remainder water and salts. […] Growth was determined by measuring the absorbance at 595 nm on a BioRad 550 microplate reader. Percent inhibition was defined as ((Ao−Ax)/Ao)*100), where Ao was the absorbance of a control well lacking peptide and Ax was the absorbance of a well with peptide.

CC[C@H](C)[C@H](NC(=O)[C@@H]1CCCN1C(=O)[C@H](CCCNC(=N)N)NC(=O)[C@@H]1CCCN1C(=O)[C@H](Cc1c[nH]cn1)NC(=O)[C@H](CO)NC(=O)[C@H](CC(C)=NO[C@H]1O[C@H](CO)[C@H](O)[C@H](O)[C@H]1NC(C)=O)NC(=O)[C@@H]1CCCN1C(=O)[C@H](CCCNC(=N)N)NC(=O)[C@@H]1CCCN1C(=O)[C@H](CO)NC(=O)[C@H](Cc1ccc(O)cc1)NC(=O)[C@@H]1CCCN1C(=O)[C@H](CCCNC(=N)N)NC(=O)[C@@H]1CCCN1C(=O)[C@H](CCCCN)NC(=O)CN)C(=O)N[C@@H](CCCNC(=N)N)C(=O)N[C@H](C(=O)O)C(C)C [neoglycopeptide 2] (H-GKPRPYSPRP[X2]SHPRPIRV-OH)
potency in blocking bacterial growth relative to unglycosylated drosocin (E. coli D22 [1]; E. coli D22, 24 h at rt): four-fold more potent
IC50 (E. coli D22 [1]): 160 ± 40 nM

CC[C@H](C)[C@H](NC(=O)[C@@H]1CCCN1C(=O)[C@H](CCCNC(=N)N)NC(=O)[C@@H]1CCCN1C(=O)[C@H](Cc1c[nH]cn1)NC(=O)[C@H](CO)NC(=O)[C@@H](NC(=O)[C@@H]1CCCN1C(=O)[C@H](CCCNC(=N)N)NC(=O)[C@@H]1CCCN1C(=O)[C@H](CO)NC(=O)[C@H](Cc1ccc(O)cc1)NC(=O)[C@@H]1CCCN1C(=O)[C@H](CCCNC(=N)N)NC(=O)[C@@H]1CCCN1C(=O)[C@H](CCCCN)NC(=O)CN)C(C)O[C@H]1O[C@H](CO)[C@H](O)[C@H](O)[C@H]1NC(C)=O)C(=O)N[C@@H](CCCNC(=N)N)C(=O)N[C@H](C(=O)O)C(C)C (stereo partly drawn) [native drosocin (1), H2N-Gly-Lys-Pro-Arg-Pro-Tyr-Ser-Pro-Arg-Pro-Thr(α-D-GalNAc)-Ser-His-Pro-Arg-Pro-Ile-Arg-Val-OH] (H-GKPRPYSPRP[Thr(3ξ)](αGalNAc)SHPRPIRV-OH)
IC50 (E. coli D22 [1]): 100 ± 20 nM
enhancement of bacteriostatic potency by the O-linked glycan (GalNAc residue) at Thr11 (bacterial growth): approximately five-fold

H-GKPRPYSPRPTSHPRPIRV-OH [unglycosylated drosocin]
IC50 (E. coli D22 [1]): 630 ± 50 nM
IC50 (E. coli D22 [2]; E. coli D22 in LB media with streptomycin, 6 h at 25° C., absorbance at 595 nm, read-out: IC50 in blocking bacterial growth): 400 ± 50 nM

CC[C@H](C)[C@H](NC(=O)[C@@H]1CCCN1C(=O)[C@H](CCCNC(=N)N)NC(=O)[C@@H]1CCCN1C(=O)[C@H](Cc1c[nH]cn1)NC(=O)[C@H](CO)NC(=O)[C@@H](NC(=O)[C@@H]1CCCN1C(=O)[C@H](CCCNC(=N)N)NC(=O)[C@@H]1CCCN1C(=O)[C@H](CO)NC(=O)[C@H](Cc1ccc(O)cc1)NC(=O)[C@@H]1CCCN1C(=O)[C@H](CCCNC(=N)N)NC(=O)[C@@H]1CCCN1C(=O)[C@H](CCCCN)NC(=O)CN)[C@@H](C)O[C@H]1O[C@H](C=NO[C@@H]2O[C@H](CO)[C@H](O)[C@H](O)[C@H]2O)[C@H](O)[C@H](O)[C@H]1NC(C)=O)C(=O)N[C@@H](CCCNC(=N)N)C(=O)N[C@H](C(=O)O)C(C)C [Glycopeptide 5] (H-GKPRPYSPRPT(X1)SHPRPIRV-OH)
potency in blocking bacterial growth relative to unglycosylated drosocin (E. coli D22 [2]; E. coli D22, 6 h at 25° C.): 3 to 4 fold

GKPRPYSPRPTSHPRPIRV [drosocin]
enhancement of potency in blocking bacterial growth by a single O-linked disaccharide (Gal-GalNAc) at Thr11 (bacterial growth; depending on the target bacterial strain): 2-8 fold
enhancement of bacteriostatic potency by the O-linked glycan (GalNAc residue) at Thr11 (bacterial growth): five-fold

Source: US6465612B1, “Synthetic peptides, conjugation reagents and methods” (The Regents of the University of California, priority 1998, dated 2002)
